Like-named read-outs stand apart in the source and are kept apart here.
Tested on: HT-29 human colon tumors
Procedure: Human Tumor Xenograft Study. An HT-29 human colon cancer cell line was purchased from ATCC (Manassas, Va.). Cells were cultured in DMEM (Dulbecco's Modified Eagle's Medium) from GIBIOBRL (Grand Island, N.Y.) with 10% fetal bovine serum (FBS) supplemented with L-glutamine and Penicillin/Streptomycin. The tumor cells were harvested when cultures reached 80-90% confluence. The supernatants were discarded and the cell pellets were suspended to 1×10^8 cells/ml in DMEM medium without FBS. HT-29 cells (5×10^6) were implanted intradermally on the back of each mouse. Tumor size was monitored by measuring the length (L), width (W), and height (H) of each tumor and calculating tumor volume (Vol=½×4/3π×(L/2)×(W/2)×H).
Mice bearing human tumor cell xenografts were treated with PG490-88 IP daily for 5 days per week. The compound was administered as the sodium salt. CPT-11 was administered IV twice per week. 5-FU was given IP daily for 5 days per week. The stock solutions of each therapeutic agent were diluted in 0.9% NaCl for dosing. The agents were given to mice at 100 μl per 10 g of mouse body weight. Mice were dosed for two weeks, and 0.9% NaCl was used as the vehicle control. Tumor volume was monitored, and toxicity of the chemotherapeutic treatment was monitored by weighing the mice every day.

In the case of `CCc1c2c(nc3ccc(OC(=O)N4CCC(N5CCCCC5)CC4)cc13)-c1cc3c(c(=O)n1C2)COC(=O)[C@]3(O)CC` [CPT-11, irinotecan, reference compound], the “tumor growth inhibition (in words)” value (CPT-11 22 mg/kg) is reported as “slight to moderate”.
For `CC(C)[C@]12O[C@H]1[C@@H]1O[C@]13[C@]1(O[C@H]1C[C@H]1C4=C(CC[C@@]13C)C(=O)OC4)[C@@H]2OC(=O)CCC(=O)O` [PG490-88, triptolide 14-succinate], the “tumor growth inhibition (in words)” value (0.125 mg/kg, by day 16) was “slightly inhibited”, the “tumor growth inhibition (in words)” value (0.25 mg/kg, by day 16) was “moderate inhibition” and the “tumor growth inhibition (in words)” value (0.75 mg/kg, by day 16) was “strongly inhibited tumor growth and induced tumor regression”. For the same compound, the “tumor growth inhibition, dose dependence (in words)” value (0.125-0.75 mg/kg) was “inhibited HT-29 tumor growth in a dose-dependent manner”, the “percent increase in mean tumor volume at day 16” value (from here on “percent increase”) (PG490-88 0.125 mg/kg IP daily 5 days per week, day 16 vs initial value, vehicle control 721%) was 462% and the “percent increase” value (PG490-88 0.25 mg/kg IP daily 5 days per week, day 16 vs initial value, vehicle control 721%) was 131%. For the same compound, the “percent decrease in mean tumor volume at day 16 from the initial value” (PG490-88 0.75 mg/kg IP daily 5 days per week, day 16) was 54% and the “mean tumor volume at day 9 (in words)” value (PG490-88 0.75 mg/kg, day 9) was “decreased from the day 5 value to approximately the initial value”.
With `O=c1[nH]cc(F)c(=O)[nH]1` [5-FU, 5-fluorouracil, reference compound] the “tumor growth inhibition (in words)” value (5-FU 20 mg/kg) was “only slightly inhibited tumor growth”, the “percent increase” value (5-FU 20 mg/kg IP daily 5 days per week, day 16, control group 721%) was 470% and the “toxicity in tumor-bearing mice” value (mouse, in vivo) was “showed signs of toxicity”.
